The text below walks through data of patent US20150329582A1, “SMALL MOLECULE COMPOUNDS SELECTIVE AGAINST GRAM-NEGATIVE BACTERIAL INFECTIONS” (priority 2014, published 2015).

The test system of one test is Staphyloccus aureus. The experiment in a line: Minimal Inhibitory Concentration (MIC) test. Format: cell-based. The settings on record: Gram positive.
A further test deals with Bacillus subtillis. In words: Minimal Inhibitory Concentration (MIC) test. Format: cell-based. The settings on record: Gram positive.
In test [1] the test system is Gram-negative bacterial pathogens (Burkholderia cenocepacia J2315, Burkholderia cenocepacia, Pseudomonas aeruginosa PAO1, Acinetobacter baumannii BAA-1793 and …). The experiment in a line: Minimal Inhibitory Concentration (MIC) test. The format is cell-based. The protocol: Minimal Inhibitory Concentration (MIC) Test
The MIC test was performed by adding 2.0 mL of an antibiotic solution (100 ug/mL) to the first tube (out of, e.g., 9 tubes). 1.0 mL of sterile broth was added to all other tubes. 1.0 mL was transferred from the first tube to the second tube. Using a separate pipette, the contents of this tube were mixed and 1.0 mL was transferred to the third tube. Dilutions were continued in this manner through tube number 8. 1.0 mL was removed from tube 8 and discarded. […] Colonies of the culture were suspended to an appropriate turbidity to be tested in 5.0 mL of Mueller-Hinton broth to give a slightly turbid suspension. This suspension was diluted by aseptically pipetting 0.2 mL of the suspension into 40 mL of Mueller-Hinton broth. 1.0 mL of the diluted culture suspension was added to each of the tubes. The final concentration of the antibiotic was one-half of the original concentration in each tube. All tubes were incubated at 35° C. overnight. […]
Antibiotic activity, measured as MIC in μg/mL, of natural Mangrolide A and a synthetic Mangrolide A O-methyl ether derivative were compared against the following Gram-negative microbial pathogens: Burkholderia cenocepacia J2315, Burkholderia cenocepacia, Pseudomonas aeruginosa PAO1, Acinetobacter Baumannii BAA-1793, Acinetobacter baumannii BAA-1605, Escherichia coli (EHEC), and Klebsiella pneumoniae.

For test [2], the system named is S-30 extract from E. coli (30S ribosomal extract). In words: Error frequency in vitro protein synthesis assay (amino acid misincorporation). Format: biochemical. Particulars: increasing concentrations (μM) of Mangrolide A, 14C-phenylalanine / 3H-leucine incorporation. The protocol:
Error Frequency In Vitro Protein Synthesis Assay Using Natural mRNA
72 mM Tris-hydrochloride pH 7.5, 72 mM NH4Cl, 12 mM magnesium acetate, 2.4 mM dithiothreitol (Sigma Co.), 2 mM adenosine triphosphate (ATP), 0.1 mM guanosine triphosphate (GTP), 5 mM phosphoenolpyruvate (Sigma Co.), 20 ug of pyruvate kinase (Sigma Co.) per mL, a mixture of 19 amino acids (each at 72 uM), 13 uM [^14C]leucine (50 counts/min per picomole), 50 ug of calcium folinate (S.P.E.C.I.A., Paris, France) per mL, 0.2 mM DFP, and 0.6 mM Mg Titriplex in a final volume of 0.125 mL per tube. mRNA (1300 μg), an S-30 extract from E. coli (200 μg), or ribosomes plus S-150 (200 μg) and crude initiation factors were added. Incubations were for 30 minutes at 37° C. The extent of amino acid incorporation was determined by measuring the radioactivity remaining insoluble after treatment with hot trichloroacetic acid (90° C. for 15 min). To reduce endogenous mRNA, ribosomes plus 5-150 or S-30 extracts were preincubated just prior to use at 37° C. for 15 min in the reaction mixture described above without [^14C]leucine, the energy generating system and added mRNA.
Assay for Polyuridylic Acid [Poly(U)]-Directed-Polyphenylalanine Synthesis. […]

Test [3] has as its system 30S rRNA ribosomal mutant, A1408G. In words: Error frequency assay with 30S rRNA ribosomal mutant. Format: biochemical. The settings on record: increasing concentrations of Mangrolide A. How it is done: (§1) The error frequency assay was conducted to determine whether a 30S rRNA ribosomal mutant, A1408G is susceptible to Mangrolide A. The mutation site is shown in FIG. 8A. […] (FIG. 8B) When wild type or A1408G (S30) mutant bacteria were grown in wells of a microwell plate containing no additions (No—negative control), Ampicillin or Tetracyclin in the presence or absence of Mangrolide A, A1408G (S30) mutants proliferated similarly to the proliferation of wild type bacteria grown in the absence of Mangrolide A. (FIG. 8C).

Test [4] deals with A1408G (S30) mutant bacteria. The experiment in a line: Growth of wild type or A1408G (S30) mutant bacteria in the presence of Mangrolide A. Format: cell-based. Particulars: grown with or without Mangrolide A, compared with wild type. How it is done:
as §1

For test [5], the system named is E. coli expressing neomycin phosphotransferase-1 (NPT). In words: Poly(U)-directed polyphenylalanine synthesis, with or without neomycin phosphotransferase-1. Format: cell-based. The settings on record: for antibiotic activity against E. coli expressing NPT: E. coli transformed with resistance plasmid expressing neomycin phosphotransferase-1. The protocol:
Assay for Polyuridylic Acid [Poly(U)]-Directed-Polyphenylalanine Synthesis.
The reaction mixture contained 400 ug of E. coli B transfer RNA (General Biochemicals, Chagrin Falls, Ohio) per mL, 5 mM spermidine, and [^14C]leucine was replaced with 13 μM [^14C]phenylalanine ([…]). A poly(UUU) RNA template [5′-[…](UUU)12UAAGCAGG-3′ (SEQ ID NO: 1) was used at a concentration of 100 ug per assay. (Legault-Demare and Chambliss, Journal of Bacteriology, 1974, 120(3): 1300-1307).
The assay for polyuridylic acid [poly(U)]-directed-polyphenylalanine synthesis was conducted in the presence or absence of neomycin phosphotransferase-1 (NPT). Wild type E. coli and E. coli transformed with a resistance plasmid expressing neomycin phosphotransferase-1 (NPT) were treated with Mangrolide A and translational error frequency determined.

Structures are written as SMILES. ≈ marks a conversion by molar mass, not a printed value.

A word on the MIC: it is the lowest concentration found to suppress growth. Read a high MIC as a need for much substance. Consider `CC[C@H]1/C=C(\C)[C@@H](O)C/C=C/C=C(\CO)C(=O)O[C@H](C(C)C)C/C=C(C)/C=C(\C)[C@@H]1O[C@@H]1O[C@H](C)[C@@H](O[C@@H]2O[C@H](C)[C@@H](OC)[C@H](O)[C@H]2OC)[C@H](N(C)C)[C@H]1O` [Mangrolide A, mangrolide A], for which the MIC in the test on Staphyloccus aureus is 32 µg/mL (≈ 41 µM); with Bacillus subtillis, > 32 µg/mL. Also, the “antibiotic potency compared with the Mangrolide A O-methyl ether derivative” value in test [1] (all Gram-negative bacteria tested) was “more potent antibiotic against all Gram-negative bacteria tested”. Also, in test [1] (range over the Gram-negative bacterial pathogens tested), the MIC range lay in the range of 0.25 to 1 µg/mL. For the same molecule, the “misincorporation of amino acids during protein synthesis” value is “increased misincorporation of amino acids” in test [2] and “induces misincorporation of amino acids” in test [2] (listed as mangrolide). For the same molecule, the “misincorporation of amino acids with A1408G mutant” value in test [3] is “limited misincorporation was induced”. In addition, the “susceptibility of A1408G mutant bacteria (growth)” value in test [4] is reported as “A1408G mutant is resistant”; in test [4] (listed as mangrolide), “A1408G mutant strain was able to grow on plates with mangrolide, unlike the wildtype”. In addition, the “antibiotic activity against E. coli expressing NPT” value in test [5] was “inactivated by the expressed neomycin phosphotransferase-1 activity”; in test [5] (listed as mangrolide), “inactivated by neomycin phosphotransferase-1”. Also, in test [5] (grown in the presence of Mangrolide A), the “translational error frequency in E. coli expressing NPT” value is given as “error frequency comparable to wild type E. coli”.
